According to patent publication US20260285850A1, “SUBSTITUTED OXAZOLIDINONES AND IMIDAZOLINONES AS HERBICIDES” (FMC CORPORATION, priority 2023, published 2026):

Key:
Type in all cases: in vivo
[1] = test system: barnyardgrass (Echinochloa crus-galli); test: Test A preemergence soil spray, visual injury rating 0-100; conditions: 10 days
Outline: (§1)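 Plants were grown in a loam soil-sand blend and treated with test chemical in a non-phytotoxic solvent mixture containing surfactant, either sprayed on soil preemergence or applied postemergence to 2-10 cm plants. After 10 days in a greenhouse, injury was scored visually against untreated controls, 0 meaning no effect and 100 complete control.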

[2] = test system: blackgrass (Alopecurus myosuroides); test: as above; conditions: 10 days
Outline: as §1

[3] = test system: corn (Zea mays); test: as above; conditions: 10 days
Outline: as §1

[4] = test system: green foxtail (Setaria viridis); test: as above; conditions: 10 days
Outline: as §1

[5] = test system: kochia (Bassia scoparia); test: as above; conditions: 10 days
Outline: as §1

[6] = test system: oat, wild (wild oat, Avena fatua); test: as above; conditions: 10 days
Outline: as §1

[7] = test system: palmer (palmer amaranth, palmer pigweed, Amaranthus palmeri); test: as above; conditions: 10 days
Outline: as §1

[8] = test system: ragweed (common ragweed, Ambrosia artemisiifolia); test: as above; conditions: 10 days
Outline: as §1

[9] = test system: ryegrass, Italian (italian ryegrass, Lolium multiflorum); test: as above; conditions: 10 days
Outline: as §1

[10] = test system: soybean (Glycine max); test: as above; conditions: 10 days
Outline: as §1

[11] = test system: wheat (Triticum aestivum); test: as above; conditions: 10 days
Outline: as §1

[12] = test system: barnyardgrass (Echinochloa crus-galli); test: Test A postemergence application, visual injury rating 0-100
Outline: as §1

[13] = test system: blackgrass (Alopecurus myosuroides); test: as above
Outline: as §1

[14] = test system: corn (Zea mays); test: as above
Outline: as §1

[15] = test system: galium (catchweed bedstraw, Galium aparine); test: as above
Outline: as §1

[16] = test system: green foxtail (Setaria viridis); test: as above
Outline: as §1

[17] = test system: horseweed (Erigeron canadensis); test: as above
Outline: as §1

[18] = test system: kochia (Bassia scoparia); test: as above
Outline: as §1

[19] = test system: oat, wild (wild oat, Avena fatua); test: as above
Outline: as §1

[20] = test system: ragweed (common ragweed, Ambrosia artemisiifolia); test: as above
Outline: as §1

[21] = test system: ryegrass, Italian (italian ryegrass, Lolium multiflorum); test: as above
Outline: as §1

[22] = test system: soybean (Glycine max); test: as above
Outline: as §1

[23] = test system: wheat (Triticum aestivum); test: as above
Outline: as §1

[24] = test system: barnyardgrass (Echinochloa crusgalli); test: Test B flooded paddy test, visual plant response rating 0-100; conditions: 250 g ai/ha, Flood, applied to paddy water, evaluated after 13 days
Outline: (§2)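 Compounds applied to standing paddy water (3 cm above soil, maintained for the test duration) on 2-leaf-stage plants; visual rating vs controls at 13 days, greenhouse.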

[25] = test system: ducksalad (Heteranthera limosa); test: as above; conditions: 250 g ai/ha, Flood, applied to paddy water, evaluated after 13 days
Outline: as §2

[26] = test system: rice (Oryza sativa); test: as above; conditions: 250 g ai/ha, Flood, applied to paddy water, evaluated after 13 days
Outline: as §2

[27] = test system: sedge, umbrella (small-flower umbrella sedge, Cyperus difformis); test: as above; conditions: 250 g ai/ha, Flood, applied to paddy water, evaluated after 13 days
Outline: as §2

[28] = 62 g ai/ha, 0 = no effect, 100 = complete control
[29] = 62 g ai/ha, postemergence, 10 days, 0 = no effect, 100 = complete control
[30] = Postemergence, 16 g ai/ha, greenhouse 10 days, 0 no effect, 100 complete control

## COC(=O)C1CC(NC(=O)C2(C(F)(F)F)CN(c3cc(F)cc(F)c3)C(=O)O2)C2CC12 (centres unmarked) [Compound 177]
[1]; 16 g ai/ha, 0 to 100 scale
  Barnyardgrass plant response rating: 60
[1]; [28]
  Barnyardgrass plant response rating (0-100): 90
[2]; 16 g ai/ha, 0 to 100 scale
  Blackgrass plant response rating: 60
[2]; [28]
  Blackgrass plant response rating (0-100): 90
[3]; 16 g ai/ha, 0 to 100 scale
  Corn plant response rating: 10
[3]; [28]
  Corn plant response rating (0-100): 10
[4]; 16 g ai/ha, 0 to 100 scale
  Foxtail, Green plant response rating: 90
[4]; [28]
  Foxtail, Green plant response rating (0-100): 100
[5]; 16 g ai/ha, 0 to 100 scale
  Kochia plant response rating: 0
[5]; [28]
  Kochia plant response rating (0-100): 80
[6]; 16 g ai/ha, 0 to 100 scale
  Oat, Wild plant response rating: 0
[6]; [28]
  Oat, Wild plant response rating (0-100): 90
[7]; 16 g ai/ha, 0 to 100 scale
  Pigweed, Palmer plant response rating: 90
[7]; [28]
  Pigweed, Palmer plant response rating (0-100): 100
[8]; 16 g ai/ha, 0 to 100 scale
  Ragweed plant response rating: 0
[8]; [28]
  Ragweed plant response rating (0-100): 20
[9]; 16 g ai/ha, 0 to 100 scale
  Ryegrass, Italian plant response rating: 80
[9]; [28]
  Ryegrass, Italian plant response rating (0-100): 90
[10]; 16 g ai/ha, 0 to 100 scale
  Soybean plant response rating: 0
[10]; [28]
  Soybean plant response rating (0-100): 0
[11]; 16 g ai/ha, 0 to 100 scale
  Wheat plant response rating: 40
[11]; [28]
  Wheat plant response rating (0-100): 100
[12]; [29]
  Barnyardgrass plant response rating (0-100): 80
[12]; [30]
  Barnyardgrass plant response rating (0 to 100 scale): 70
[13]; [29]
  Blackgrass plant response rating (0-100): 90
[13]; [30]
  Blackgrass plant response rating (0 to 100 scale): 80
[14]; [29]
  Corn plant response rating (0-100): 90
[14]; [30]
  Corn plant response rating (0 to 100 scale): 30
[15]; [29]
  Galium plant response rating (0-100): 80
[15]; [30]
  Galium plant response rating (0 to 100 scale): 90
[16]; [29]
  Foxtail, Green plant response rating (0-100): 90
[16]; [30]
  Foxtail, Green plant response rating (0 to 100 scale): 30
[17]; [29]
  Horseweed plant response rating (0-100): 10
[17]; [30]
  Horseweed plant response rating (0 to 100 scale): 0
[18]; [29]
  Kochia plant response rating (0-100): 70
[18]; [30]
  Kochia plant response rating (0 to 100 scale): 30
[19]; [29]
  Oat, Wild plant response rating (0-100): 90
[19]; [30]
  Oat, Wild plant response rating (0 to 100 scale): 70
[20]; [29]
  Ragweed plant response rating (0-100): 20
[20]; [30]
  Ragweed plant response rating (0 to 100 scale): 0
[21]; [29]
  Ryegrass, Italian plant response rating (0-100): 80
[21]; [30]
  Ryegrass, Italian plant response rating (0 to 100 scale): 70
[22]; [29]
  Soybean plant response rating (0-100): 50
[22]; [30]
  Soybean plant response rating (0 to 100 scale): 20
[23]; [29]
  Wheat plant response rating (0-100): 90
[23]; [30]
  Wheat plant response rating (0 to 100 scale): 80
[24]
  Plant response rating, Barnyardgrass (0 to 100 scale, 0 is no effect and 100 is complete control): 90
[25]
  Plant response rating, Ducksalad (0 to 100 scale, 0 is no effect and 100 is complete control): 75
[26]
  Plant response rating, Rice (0 to 100 scale, 0 is no effect and 100 is complete control): 90
[27]
  Plant response rating, Sedge, Umbrella (0 to 100 scale, 0 is no effect and 100 is complete control): 80
